Assay [1] deals with 40-mer aptamer (DNA, aptamer) ACGTTGACGCTGGTGCCCGGTTGTGGTGCGAGTGTTGTGT
Briefly: CD thermal denaturation (250 nm free, 270 nm bound). The settings on record: 100 mM Na+, 5 mM K+, 2 mM Mg2+, 1 mM Ca2+; 20 mM Tris pH 7.1; 40 µM OTC, 5 µM aptamer; derived from two Tm (41 to 80 °C).

The test system of assay [2] is 71-mer aptamer (DNA, aptamer) GGAATTCGCTAGCACGTTGACGCTGGTGCCCGGTTGTGGTGCGAGTGTTGTGTGGATCCGAGCTCCACGTG
Briefly: CD titration. The settings on record: 100 mM Na+, 5 mM K+, 2 mM Mg2+, 1 mM Ca2+; 20 mM Tris pH 7.6, 25 °C; 5 µM aptamer, 2.5-40 µM OTC.

Assay [3] has as its system thiol-modified 40-mer aptamer (DNA, aptamer) ACGTTGACGCTGGTGCCCGGTTGTGGTGCGAGTGTTGTGT
Briefly: QCM with dissipation (frequency decrease). The conditions noted are these: 100 mM Na+, 5 mM K+, 2 mM Mg2+, 1 mM Ca2+; pH 7.1 and 9.1, 25 °C; 20 and 40 µM OTC.

Assay [4] deals with 40-mer aptamer (DNA, aptamer) ACGTTGACGCTGGTGCCCGGTTGTGGTGCGAGTGTTGTGT
The assay can be described thus: CD titration. The conditions noted are these: 100 mM Na+, 5 mM K+, 2 mM Mg2+, 1 mM Ca2+; 20 mM Tris pH 7.6, 25 °C; 5 µM aptamer, 2.5-40 µM OTC.

The results in this text go back to PMC10526194 (2023).

Consider `CN(C)[C@@H]1C(=O)C(C(N)=O)=C(O)[C@@]2(O)C(=O)C3=C(O)c4c(O)cccc4[C@@](C)(O)[C@H]3[C@H](O)[C@@H]12`, for which, in assay [1], the “Tm shift (ΔTm)” value came to 39 °C. Further, the binding result in assay [2], in assay [3] and in assay [4] was “yes” each time.
